From patent US20240252546A1, “NEURITE OUTGROWTH PROMOTION KIT AND USE THEREFOR” (KEIO UNIVERSITY, priority 2021, published 2024) come the findings set out here.

What all share (format): cell-based, human
One test concerns phosphorylated CDC25B. The test can be described thus: Phosphorylated CDC25B in nerve cells after inducing differentiation (Experimental Example 12). Particulars: 201B7 neurospheres treated 24 hours, differentiated 14 days; compared with the untreated case. The protocol: Neurospheres were treated with DAPT or Compound 34, and the amount of phosphorylated CDC25B after inducing differentiation into nerve cells was examined.
Neurospheres derived from 201B7 cells, which are cells of a human iPS cell line, were prepared in the same manner as in Experimental Example 1. Subsequently, each neurosphere was cultured for 24 hours in the presence of each of DAPT and Compound 34. DAPT and Compound 34 were used at the same concentrations as in Experimental Example 1.
Subsequently, each neurosphere was seeded on a 48-well chamber slide (IWAKI & CO., LTD.) coated with poly-L-ornithine/fibronectin, cultured for 14 days in a culture medium containing no growth factor at 37° C. in an environment of 95% air and 5% CO2, and differentiated into nerve cells.
Subsequently, each of the obtained nerve cells was fixed with 4% paraformaldehyde and subjected to immunostaining of each of βIII-tubulin, which is a nerve cell marker, and phosphorylated CDC25B.
FIGS. 20(a) to 20(f) show fluorescence photomicrographs showing the representative results of immunostaining. The scale bar is 100 μm. […]

The subject of another test is CDC25B. The test can be described thus: Expression level of CDC25B by RNA-seq (Experimental Example 4). The following applies: 201B7 neurospheres, vs control. The source says:
FIG. 9 is a graph showing the results obtained by treating the neurosphere derived from 201B7 cells with each of DAPT and Compound 34, carrying out the RNA-seq analysis, and quantifying the expression level of CDC25B based on transcriptome data.

For the next test, the system named is phosphorylated p38. The test can be described thus: Immunostaining of phosphorylated p38 in treated neurospheres (Experimental Example 3). Particulars: 201B7 neurospheres; 10 μM DAPT, 1 μM Compound 34, 24 hours; vs control. The method, then:
Neurospheres derived from 201B7 cells were treated with various γ-secretase inhibitors in the same manner as in Experimental Example 1. As the γ-secretase inhibitor, DAPT, Compound 34, L-685,458, LY411575, Sulindac, and Compound E were used at the same concentrations as in Experimental Example 1. Subsequently, each neurosphere was fixed with paraformaldehyde and subjected to immunostaining of phosphorylated p38.
FIG. 5 is a graph showing the results obtained by quantifying the amount of the phosphorylated p38 in the neurosphere which had been treated with each of the γ-secretase inhibitors. In FIG. 5, “Ctl” indicates the result obtained from the control, “DAPT” indicates the result obtained by the DAPT treatment, “C. 34” indicates the result obtained by Compound 34 treatment, “L-685” indicates the result obtained by the L-685,458 treatment, “LY” indicates the result obtained by the LY411575 treatment, “Suli” indicates the result obtained by the Sulindac treatment, and “Com. E” indicates the result obtained by the Compound E treatment.

The test system of the next test is p38. As to the kind of experiment: Expression level of p38 by RNA-seq (Experimental Example 3). Particulars: 201B7 neurospheres, vs control. The source says: FIG. 6 is a graph showing the results obtained by treating the neurosphere derived from 201B7 cells with each of DAPT and Compound 34, carrying out the RNA-seq analysis, and quantifying the expression level of p38 based on transcriptome data.

The subject of the next test is GADD45G. The test can be described thus: Expression level of GADD45G in treated neurospheres by RNA-seq (Experimental Example 2). The following applies: vs control. The method, then:
Neurospheres derived from 201B7 cells, which are cells of a human iPS cell line, were prepared in the same manner as in Experimental Example 1.
In addition, neurospheres derived from 414C2 cells, which are cells of a human iPS cell line, were prepared according to the following method. First, 414C2 cells were subjected to adhesion culture for 12 days together with fibroblasts derived from a mouse embryo. Subsequently, the cells were subjected to suspension culture for 30 days to form a germ layer body. Subsequently, the aggregated cells were dissociated, cultured in a culture medium obtained by adding 20 ng/ml of FGF2 (PeproTech, Inc.) to an MHM medium of which the composition is shown in Table 1 above, and differentiated into neurospheres.
Subsequently, each neurosphere derived from iPS cells was treated with each of DAPT and Compound 34. Subsequently, one neurosphere having a diameter of about 100 μm was selected from the neurospheres in each group and subjected to an RNA-seq analysis.
FIG. 3 is a graph showing the results obtained by treating the neurosphere derived from 201B7 cells with each of DAPT and Compound 34, carrying out the RNA-seq analysis, and quantifying the expression level of GADD45G based on transcriptome data. In FIG. 3, “Ctl” indicates the result obtained from the control, “DAPT” indicates the result obtained by the DAPT treatment, and “C. 34” indicates the result obtained by Compound 34 treatment.

Setting [1] is: neurosphere derived from 201B7 cells.
[2] abbreviates: neurosphere derived from 414C2 cells.

Turning to `C[C@H](NC(=O)Cc1cc(F)cc(F)c1)C(=O)N[C@H](C(=O)OC(C)(C)C)c1ccccc1` [DAPT], the “amount of phosphorylated CDC25B after inducing differentiation into nerve cells” value in the test on phosphorylated CDC25B was “increased”. The “expression level of CDC25B” value in the test with CDC25B is reported as “slightly increased”. For the same molecule, the “amount of phosphorylated p38 in the neurosphere” value with phosphorylated p38 is “significantly increased”. For the same molecule, the “expression level of p38” value in the test with p38 is given as “not increased”. The “expression of GADD45G” value in the test on GADD45G (setting [1]) and in the test on GADD45G (setting [2]) was “significantly increased” each time.

Consider `O=C1Nc2ccccc2C(c2ccccc2)=N[C@@H]1NC(=O)[C@H](c1ccc(F)cc1)[C@@H](CO)c1ccc(F)c(F)c1` [Compound 34], for which the “amount of phosphorylated CDC25B after inducing differentiation into nerve cells” value in the test with phosphorylated CDC25B is on record as “increased”. In the test on CDC25B, the “expression level of CDC25B” value was “slightly increased”. Besides, the “amount of phosphorylated p38 in the neurosphere” value with phosphorylated p38 is “significantly increased”. Further, in the test on p38, the “expression level of p38” value was “not increased”. In addition, the “expression of GADD45G” value in the test with GADD45G (setting [1]) and in the test on GADD45G (setting [2]) was “significantly increased” throughout.
